Results reported in patent publication US7367988B1, “Use of electromagnetic fields in cancer and other therapies” (The Catholic University of America, priority 2000, dated 2008).
Where two headings read alike, the source gives them in different places.

System: chick embryos
Experimental: I have investigated the effect of EM fields on the ability of taxol to create abnormalities in rapidly dividing cells. The model for this purpose was chick embryos. The embryos were incubated in the presence of a 60 Hz, 8 μT EM field. After 48 hours of continuous incubation, either dimethyl sulfoxide (DMSO) alone (controls) or Taxol dissolved in DMSO was injected. EM field incubation was continued for an additional 48 hours. At the end of 4 days incubation, embryos were visualized and classified as normal or abnormal (deformed, young, or dead).

Structure (SMILES): CC(=O)O[C@H]1C(=O)[C@@]2(C)[C@H]([C@H](OC(=O)c3ccccc3)[C@]3(O)C[C@H](OC(=O)[C@H](O)[C@@H](NC(=O)c4ccccc4)c4ccccc4)C(C)=C1C3(C)C)[C@]1(OC(C)=O)CO[C@@H]1C[C@@H]2O [Taxol]
- Percent Abnormal Embryos (Taxol + EM fields: 60 Hz, 8 μT for 48 hours before injection and an additional 48 hours after, embryos classified at 4 days): 31.1%
- Percent Abnormal Embryos (Taxol alone, dissolved in DMSO, injected after 48 hours of incubation, embryos classified normal or abnormal (deformed, young, or dead) at 4 days): 19.3%
- Toxic effect of taxol with EM field exposure compared with taxol alone (in vivo): very significant increase in the toxic effect
